Calls of active or inactive are those of the source. The rule behind the calls is not given here. Peptide text beside a SMILES is read from it.
Tests used:
PC-12 [1] = experiment: Protection against beta amyloid 42-induced neurotoxicity in rat PC12 cells by MTT reduction assay; type: functional, cell-based
[2] = molecular target: Amyloid-beta precursor protein (Homo sapiens) (UniProt P05067); experiment: Inhibition of self-aggregation of beta amyloid 42 by thioflavin T assay; type: functional
[3] = molecular target: Amyloid-beta precursor protein (Homo sapiens) (UniProt P05067); experiment: Binding affinity to beta amyloid 42 by ELISA
PC-12 [4] = experiment: Neutralizing activity against beta amyloid 42-induced cytotoxicity in rat PC12 cells at 100 uM by MTT reduction assay; type: functional, cell-based
[5] = molecular target: Amyloid-beta precursor protein (Homo sapiens) (UniProt P05067); experiment: Binding affinity to beta amyloid 42 at 10 uM to 100 uM by ELISA

Amyloid-beta precursor protein (Homo sapiens), sequence (P05067 whole entry): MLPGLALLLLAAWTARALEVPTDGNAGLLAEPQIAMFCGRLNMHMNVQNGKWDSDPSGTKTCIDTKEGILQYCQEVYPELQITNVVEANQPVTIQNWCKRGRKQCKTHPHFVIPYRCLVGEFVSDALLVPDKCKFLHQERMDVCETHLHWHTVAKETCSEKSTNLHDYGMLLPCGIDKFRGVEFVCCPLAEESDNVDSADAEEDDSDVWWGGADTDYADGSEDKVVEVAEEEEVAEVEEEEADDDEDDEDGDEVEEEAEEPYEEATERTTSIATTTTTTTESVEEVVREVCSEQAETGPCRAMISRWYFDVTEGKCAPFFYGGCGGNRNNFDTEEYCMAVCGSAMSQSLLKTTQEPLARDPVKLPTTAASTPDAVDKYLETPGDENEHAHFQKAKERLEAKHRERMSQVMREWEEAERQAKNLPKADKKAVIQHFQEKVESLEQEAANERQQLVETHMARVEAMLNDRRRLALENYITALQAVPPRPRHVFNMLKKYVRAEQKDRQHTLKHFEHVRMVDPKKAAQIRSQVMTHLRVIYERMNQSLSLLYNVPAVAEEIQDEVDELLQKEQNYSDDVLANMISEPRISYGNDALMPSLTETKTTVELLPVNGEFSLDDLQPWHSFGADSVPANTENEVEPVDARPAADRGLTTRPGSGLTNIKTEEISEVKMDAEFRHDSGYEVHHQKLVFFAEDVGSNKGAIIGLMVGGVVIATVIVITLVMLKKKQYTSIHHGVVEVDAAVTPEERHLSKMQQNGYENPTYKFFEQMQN

Compound	Activity (PC-12 [1])	further results
H-KEHQF-OH	inactive	Activity [2]: inactive
CC(C)[C@H](NC(=O)[C@H](Cc1ccccc1)NC(=O)[C@@H](NC(=O)[C@@H](N)CS)[C@H](C)O)C(=O)N[C@@H](CCCN=C(N)N)C(=O)O	inactive	Activity [3]: Active
CC(C)[C@H](NC(=O)[C@H](Cc1ccccc1)NC(=O)[C@@H](N)[C@H](C)O)C(=O)N[C@@H](CCCN=C(N)N)C(=O)N[C@H](C(=O)O)[C@H](C)O	inactive	
H-FNHKKRLLHPSLFPR-OH		Activity [2]: inactive; Activity [3]: inactive
H-FCKEH-OH	inactive	
H-THIFC-OH	inactive	
H-VRTHI-OH	inactive	
H-HESNDCTFV-OH		Activity [3]: inactive
H-HESNDCTFVRT-OH		Activity (PC-12 [4]): inactive; Activity [5]: Active
CC[C@H](C)[C@H](NC(=O)[C@H](Cc1c[nH]cn1)NC(=O)[C@@H](NC(=O)[C@H](CCCN=C(N)N)NC(=O)[C@@H](NC(=O)[C@H](Cc1ccccc1)NC(=O)[C@@H](NC(=O)[C@@H](N)CS)[C@@H](C)O)C(C)C)[C@@H](C)O)C(=O)N[C@@H](Cc1ccccc1)C(=O)N[C@@H](CS)C(=O)N[C@@H](CCCCN)C(=O)N[C@@H](CCC(=O)O)C(=O)N[C@@H](Cc1c[nH]cn1)C(=O)N[C@@H](CCC(N)=O)C(=O)N[C@@H](Cc1ccccc1)C(=O)O (H-CTFVRTHIFCKEHQF-OH)	Dose-dependent effect	Activity [2]: Dose-dependent effect; Activity [3]: Active
H-IFCKE-OH	inactive	
H-FVRTH-OH	inactive	
H-CKEHQ-OH	inactive	
H-HIFCK-OH	inactive	
